Reference: PMC9730799, “Elucidation of the interactome of the sucrose transporter StSUT4: sucrose transport is connected to ethylene and calcium signalling” (Journal of Experimental Botany, 2022)

Biological target: T1, StSUT4 (Solanum tuberosum, UniProt Q9FV92)
T1 construct: gene SUT4; StSUT4 cDNA in pDR196, expressed in yeast cells
T1 sequence (Q9FV92 1-500): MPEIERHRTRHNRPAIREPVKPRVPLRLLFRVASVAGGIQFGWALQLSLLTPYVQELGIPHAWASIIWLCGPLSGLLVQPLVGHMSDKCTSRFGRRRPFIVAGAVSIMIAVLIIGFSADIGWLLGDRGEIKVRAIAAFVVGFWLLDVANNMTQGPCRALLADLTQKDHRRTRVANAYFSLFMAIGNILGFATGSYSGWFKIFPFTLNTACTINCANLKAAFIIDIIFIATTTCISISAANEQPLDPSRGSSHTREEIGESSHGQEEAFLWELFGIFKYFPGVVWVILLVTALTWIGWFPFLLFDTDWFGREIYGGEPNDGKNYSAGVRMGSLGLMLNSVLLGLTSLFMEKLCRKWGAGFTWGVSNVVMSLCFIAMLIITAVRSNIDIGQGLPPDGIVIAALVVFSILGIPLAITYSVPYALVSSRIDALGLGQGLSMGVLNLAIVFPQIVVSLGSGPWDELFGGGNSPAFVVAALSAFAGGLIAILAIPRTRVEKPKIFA
Experiment: competition with esculin uptake in yeast, fluorescence
Type: cell-based
Details: 8 mM esculin, pH 5.0, 20 mM unlabelled sucrose

% inhibition at 20 mM: ~ almost 50%
Compound: OC[C@H]1O[C@@](CO)(O[C@H]2O[C@H](CO)[C@@H](O)[C@H](O)[C@H]2O)[C@@H](O)[C@@H]1O [sucrose]
